RP-LC retention time data for 79 compounds are collected here from the METLIN SMRT retention time set (Domingo-Almenara et al. 2019).

Each structure is given as a SMILES string.

This data set is described as follows: gradient 5% acetonitrile 3 min, to 50% in 2 min, to 85% in 15 min, held 3 min, 100 µL/min. As to conditions: column: Zorbax Extend-C18 2.1 x 50 mm; eluents: water / acetonitrile, 0.1% formic acid. In a few lines: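 Retention times come from adduct peaks that were picked computationally and then checked by hand. The standards, pure and pooled in mixtures of ~100 molecules, were run on a Zorbax Extend-C18 column (2.1 × 50 mm, 1.8 μm) at 100 μL/min with water and acetonitrile, each with 0.1% formic acid. Detection was by quadrupole time-of-flight mass spectrometry in positive and negative ionization mode, with a dead volume of 40 μL and a dwell volume of 900 μL.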
`CC(C)CN1C(=O)c2cccn2CC1CNC(=O)c1cccn1C` (centres undefined) had an RP-LC retention time of 733 s.

Compound `O=C(Nc1ccccc1Cl)C1=Cc2ccccc2OC1` gave an RP-LC retention time of 975 s.

Compound `CC(C)CC(=O)Nc1ccc(N2CCN(CC(=O)N(C)C)CC2)cc1C(=O)O` had an RP-LC retention time of 595 s.

`Cc1ccc(S(=O)(=O)N2CCN(c3cnn4c(C)nnc4c3)CC2)cc1` gave an RP-LC retention time of 679 s.

In turn, `O=C(CN1C(=O)NC2(CCCCC2)C1=O)Nc1ccc2c(c1)OCO2` had an RP-LC retention time of 709 s.

For `CCOc1ccccc1CNC(=O)C1CCN(c2nc(CC)nc3csc(C)c23)CC1`, the RP-LC retention time amounted to 1030 s.

Compound `Cc1ccc(-c2cc3c(N4CCCC(C(=O)NC5CC5)C4)nccn3n2)c(C)c1` (centres undefined) displayed an RP-LC retention time of 782 s.

In turn, `O=C(Nc1ccc2nc3n(c(=O)c2c1)CCCCC3)C(=O)N1CCCC1` came in with an RP-LC retention time of 684 s.

With `Cc1ccc(-c2noc(CN3N=NC4C(=O)N(c5ccc(C)c(C)c5)C(=O)C43)n2)cc1` (centres undefined), the RP-LC retention time was 1110 s.

`COc1ccc(C(=O)N2CCC(COCc3ccccc3)CC2)cc1` registered an RP-LC retention time of 915 s.

For `CCc1noc(-c2ccc(SCC(=O)N3CCCCCC3)nc2)n1`, the RP-LC retention time came to 939 s.

Consider `O=C1CCN(C(=O)C2CCN(C(=O)C3CCC3)CC2)CCCCCCN1`, for which the RP-LC retention time was determined as 626 s.

In the case of `CCOc1ccc(CC(=O)NC2CCN(c3cc(-c4ccc(F)cc4)[nH]n3)C2)cc1OCC` (centres undefined), the RP-LC retention time is 679 s.

The compound `CCOC(=O)c1nc(NCCN2CCOCC2)c2ccccc2n1` gave an RP-LC retention time of 584 s.

Consider `CCN1CCN(C(=O)c2nnc(-c3ccc(S(=O)(=O)N4CCCC4)cc3)o2)CC1`, for which the RP-LC retention time is 623 s.

On to `CC1=C(c2ccc(C(C)C)cc2)S(=O)(=O)N=C1N1CCC(NC(=O)c2ccoc2)CC1`, for which the RP-LC retention time was 769 s.

`O=C(NCc1ccc(F)cc1)N1CC(F)(F)C[C@H]1c1nnc(-c2cnccn2)o1` displayed an RP-LC retention time of 747 s.

`CCCC(=O)Nc1ccc2nc(N3CCN(c4ccc(OC)cc4)CC3)cc(C(=O)O)c2c1` showed an RP-LC retention time of 633 s.

Compound `CC(C)(C)C(=O)NC1CCN(C(=O)c2ccc(F)cc2)C1` (centres undefined) registered an RP-LC retention time of 688 s.

Consider `O=C1CCc2cc(S(=O)(=O)N3CCCC3C(=O)N3CCN(c4ccccc4)CC3)ccc2N1` (centres undefined), for which the RP-LC retention time came out at 713 s.

The compound `O=C(c1cn2ccccc2n1)N1CCN(c2cccc(Cl)c2)CC1` gave an RP-LC retention time of 718 s.

The compound `CC(NS(=O)(=O)c1ccc(Cl)c(-c2nnc(-c3ccccc3)o2)c1)C(=O)O` (centres undefined) displayed an RP-LC retention time of 819 s.

On to `CCN1C(=O)COc2cc(-c3noc(C(=O)NCCC(C)C)n3)ccc21`, for which the RP-LC retention time came out at 979 s.

Compound `Cc1ccnc(NC(=O)Cn2ccc3ccc(-c4nnc(C)o4)cc32)c1` came in with an RP-LC retention time of 674 s.

`O=C(Cn1nc2c3cc(-c4ccc(Cl)cc4)nn3ccn2c1=O)N1CCCCC1` returned an RP-LC retention time of 924 s.

Compound `CCOC(=O)N1CCN(C(=O)Cc2c(C)nn(-c3nc(-c4ccc(C)cc4)cs3)c2C)CC1` returned an RP-LC retention time of 1070 s.

`COc1ccc(-c2cc(C(=O)N3CCOCC3)nn2C2CCS(=O)(=O)C2)cc1` (centres undefined) yielded an RP-LC retention time of 704 s.

`O=C(c1ccc([N+](=O)[O-])cc1)N(Cc1ccccc1)Cc1ccco1` gave an RP-LC retention time of 935 s.

`Cc1cc(C(=O)Nc2nnc(-c3ccn(C(C)C)n3)o2)no1` registered an RP-LC retention time of 620 s.

Take `Cc1noc(C)c1S(=O)(=O)N1CCC(C(=O)NCCc2csc(-c3ccccc3)n2)CC1`: the RP-LC retention time worked out at 877 s.

`CCc1ccc(NC(=O)Cn2nc3c(N(C)C4CCCCC4)nccn3c2=O)cc1`: the RP-LC retention time amounted to 823 s.

As to `Cc1ccc(C(=O)N2CC3CN(S(=O)(=O)c4cccc(F)c4)CC(C2)O3)s1`, the RP-LC retention time came out at 821 s.

`O=C(C(=O)N1CCN(c2ccccn2)CC1)c1ccc[nH]1` registered an RP-LC retention time of 556 s.

The compound `O=C(NCc1ccccn1)C1CCN(c2nc3ccc(-c4cncnc4)nc3s2)CC1` gave an RP-LC retention time of 599 s.

`Cc1ccc(N2C(=O)C3N=NN(Cc4nc(-c5ccccc5Br)no4)C3C2=O)cc1F` (centres undefined) registered an RP-LC retention time of 1010 s.

Turning to `CC(C)N1CCN(Cc2ccc(C(=O)NCc3ccccc3)cc2)C(=O)C1=O`, the RP-LC retention time stood at 685 s.

Turning to `CCn1c(=O)sc2cc(S(=O)(=O)N3CCC(C(=O)NC(C)C)CC3)ccc21`, the RP-LC retention time was 749 s.

Take `O=C(CSc1ccc(N2CCCC(C(=O)NC3CC3)C2)nn1)Nc1cccc(Cl)c1` (centres undefined): the RP-LC retention time turned out to be 689 s.

`Cc1[nH]c(-c2ccc(F)cc2)cc1C(=O)N1CC=C(c2ccccc2)CC1` had an RP-LC retention time of 1030 s.

Consider `CC(C)CC(=O)Nc1ccc(-n2cnc(C(=O)N3CCCC(C)C3)c2)nc1` (centres undefined), for which the RP-LC retention time amounted to 756 s.

In turn, `CC(NC(=O)C1CCN(c2cc(N3CCCC3)ncn2)CC1)c1ccccc1` (centres undefined) had an RP-LC retention time of 644 s.

`O=S(=O)(c1ccc2nncn2c1)N(Cc1ccc(F)cc1)c1ccccc1` came in with an RP-LC retention time of 846 s.

The compound `CC(C)C(=O)Nc1ccc(C(=O)NCCNS(=O)(=O)c2ccc(F)c(Cl)c2)cc1` came in with an RP-LC retention time of 720 s.

`COCCN1C(=O)c2ccccc2C(C(=O)Nc2ccc(OC)cc2)C12CCCC2` (centres undefined) returned an RP-LC retention time of 852 s.

Compound `O=C(COc1ccc(Cl)cc1)N1CC(n2cnnc2C2CC2)C1` had an RP-LC retention time of 675 s.

As for `O=C(CN1c2ccc(F)cc2-c2ccccc2S1(=O)=O)NCCCN1CCOCC1`, the RP-LC retention time was 625 s.

`COC(=O)c1ccc2c(=O)n(-c3ccc4c(c3)OCO4)c(N3CCCC3)nc2c1`: the RP-LC retention time was 885 s.

For `CCCN(C)c1nccn2c(=O)n(CC(=O)Nc3ccc(C)c(F)c3)nc12`, the RP-LC retention time came out at 726 s.

The compound `Cn1ncc2c3ccccc3n(CC(=O)N3CCN(c4ccc(F)cc4)CC3)c2c1=O` displayed an RP-LC retention time of 875 s.

`O=C(Nc1ccccc1)N1[C@H]2CC[C@@H]1c1cncnc1C2` returned an RP-LC retention time of 651 s.

In the case of `CCOC(=O)c1cc(C)nc2c1c(=O)n(Cc1ccccc1C)c(=O)n2C`, the RP-LC retention time stood at 872 s.

Turning to `COCCNC(=O)C1CCc2sc(C(=O)N3CCCCC3)cc2C1` (centres undefined), the RP-LC retention time came to 651 s.

Take `COc1ccc(-c2noc(C3CCCN3C(=O)c3cccc(F)c3)n2)cc1` (centres undefined): the RP-LC retention time stood at 946 s.

Consider `C=CCN1CCN(C(=O)C2=NN(c3ccc(Cl)cc3)c3ncccc3S2(=O)=O)CC1`, for which the RP-LC retention time was found to be 660 s.

Regarding `CCN1CCCC1CN(CC(=O)N1CCNCC1)S(=O)(=O)c1cc(C)ccc1C` (centres undefined), the RP-LC retention time is 581 s.

Turning to `COc1ccc(Oc2ncc(-c3ccc(C(=O)NC4CC4)cc3)cn2)cc1`, the RP-LC retention time came to 774 s.

Consider `CSc1ccc(-c2nc3ccc(C)cn3c2Nc2ccccc2C)cc1`, for which the RP-LC retention time was 795 s.

In the case of `NC(=O)C1CCN(S(=O)(=O)c2cc(-c3noc(C4CCC4)n3)cs2)CC1`, the RP-LC retention time was 777 s.

`Cc1cc(=O)n(CC(=O)Nc2ccc(Cl)cc2)c(N2CCc3ccccc3C2)n1` registered an RP-LC retention time of 855 s.

In turn, `O=c1n(Cc2ccccc2)nc2ccc(S(=O)(=O)N3CCc4ccccc4C3)cn12` had an RP-LC retention time of 644 s.

As to `COc1ccc(NC(=O)CN2C(=O)C3CCCN3C(=O)c3ccc(F)cc32)cc1` (centres undefined), the RP-LC retention time worked out at 693 s.

In the case of `Cc1ccc(CNC(=O)Cc2nnc(-c3ccc4ncccc4c3)o2)cc1`, the RP-LC retention time was 832 s.

In the case of `O=C(Cc1cccn1-c1ccc(F)cc1)NCc1ccc(F)cc1`, the RP-LC retention time came out at 922 s.

As for `Cc1ccc(-c2cn3cccnc3n2)cc1NC(=O)CCC1CCCCC1`, the RP-LC retention time came to 789 s.

Turning to `Cc1cc(C)c2nc(C)cc(C(=O)N3CCN(c4ccccn4)CC3)c2c1`, the RP-LC retention time came to 593 s.

Regarding `O=C(Cn1ccc2sccc2c1=O)Nc1ccc(Cl)cc1F`, the RP-LC retention time stood at 802 s.

The compound `CNC(=O)[C@@H]1CN(C(=O)c2cnccn2)C[C@H]1c1n[nH]c(C)n1` registered an RP-LC retention time of 539 s.

The compound `CC(C)Oc1ccc(C(=O)N(Cc2ccc(Br)o2)C2CCS(=O)(=O)C2)cc1` (centres undefined) returned an RP-LC retention time of 963 s.

For the compound `COc1c(C(=O)N2CCN(C3CCCCC3)CC2)sc2ccc(F)cc12`, the RP-LC retention time is 685 s.

Turning to `NC(=O)c1ccc(NC(=O)CSC2=Nc3ccccc3N=C(c3ccccn3)C2)cc1`, the RP-LC retention time amounted to 738 s.

As for `CC(C)Cn1c(=O)c2ccccc2n(Cc2nc(-c3ccc(C(F)(F)F)cc3)no2)c1=O`, the RP-LC retention time was determined as 1300 s.

`CCOC(=O)c1c(C)oc2nc(C)nc(N3CCN(Cc4ccc5c(c4)OCO5)CC3)c12` displayed an RP-LC retention time of 708 s.

`CCOc1ccccc1NC(=O)N1CCCC1c1nc(-c2cccc(C)c2)no1` (centres undefined) had an RP-LC retention time of 858 s.

`CSc1ccc(Cc2nnc(NC(=O)c3cccc(C(F)(F)F)c3)o2)cc1`: the RP-LC retention time came out at 907 s.

In turn, `CCCCS(=O)(=O)N1CCC(C2CCN(C(=O)NC)CC2)C1` (centres undefined) showed an RP-LC retention time of 682 s.

`Cc1ccc(CN2CCN(C3CCN(C(=O)Nc4ccc(F)cc4)CC3)C(=O)C2=O)cc1`: the RP-LC retention time was 776 s.

`CC(C)CCN1CCC(N2CCN(S(=O)(=O)Cc3ccccc3)CC2)C1=O` (centres undefined) showed an RP-LC retention time of 646 s.

Consider `Nc1nccn(Cc2ccc(F)cc2F)c1=O`, for which the RP-LC retention time amounted to 577 s.

For the compound `Cc1ccc(NC(=O)C2CCCN(S(=O)(=O)c3c[nH]c(C(=O)N4CCCCCC4)c3)C2)cc1C` (centres undefined), the RP-LC retention time stood at 871 s.
